The values that follow come from patent US20240262807A1, “COMPOUND USED AS BCR-ABL INHIBITOR” (CHIA TAI TIANQING PHARMACEUTICAL GROUP CO., LTD., priority 2021, published 2024).

The term IC50 denotes the concentration that gives 50% inhibition.

Test [1] concerns K562 cells. Put plainly: Inhibitory effect of compounds on proliferation of K562 cells (CCK-8). The settings on record: Homo sapiens, 72 h with compound, CCK-8, 5% serum. In kind it is cell-based. As for the experimental part:
K562 cells in logarithmic growth phase and good cell condition were added to a centrifuge tube and centrifuged at 1000 rpm for 5 min in a low speed centrifuge. […] The cells were seeded on a 96-well plate at 100 µL/well using a multi-channel pipette and cultured in a cell incubator at 37° ° C. 5% CO2 and saturated humidity. […] Inhibition rate (%)=(mean value of negative control group−mean value of experimental group)/(mean value of negative control group−mean value of blank group)×100%. A dose-response curve was fitted by four-parameter analysis, with the logarithm of compound concentration serving as abscissa and inhibition rate serving as ordinate, such that IC50 was calculated.

The target in test [2] is T1, Ba/F3-BCR-ABL1-T315I-C3 cells (Homo sapiens, UniProt P00519, T315I, cells depend on it).
T1 construct: fused on or other part: P11274 (Breakpoint cluster region protein)
Put plainly: Inhibitory effect of compounds on proliferation of BCR-ABL T315I-transfected Ba/F3 cells (CCK-8). In kind it is cell-based. The settings on record: 72 h with compound, CCK-8, 5% serum, read-out: IC50 (nM) Ba/F3-BCR-ABL1 T315I. As for the experimental part: Ba/F3-BCR-ABL1-T315I-C3 cells in logarithmic growth phase and good cell condition were added to a centrifuge tube and centrifuged at 1000 rpm for 5 min in a low speed centrifuge. The supernatant was discarded, and 5 mL of complete medium (RPMI 1640 basic medium+10% FBS) was added using a pipette for cell resuspension. The cells were counted using a cell counter, diluted with complete medium to a cell density of 6×10^4 cells/mL, and an equivalent amount of RPMI 1640 basic medium was added to adjust the serum concentration to 5% and the cell density to 3×10^4 cells/mL for plate seeding. The cells were seeded on a 96-well plate at 100 μL/well using a multi-channel pipette and cultured in a cell incubator at 37° C. 5% CO2 and saturated humidity. After 24 h incubation, compounds were loaded using a nanoliter pipettor, 8 concentrations (1000 nM, 250 nM, 63 nM, 16 nM, 3.9 nM, 0.98 nM, 0.24 nM, 0.061 nM) were set for each compound, and 2 replicate wells were set for each concentration; cells with no compounds added were taken as a negative control, and a plating medium with no cells added was taken as a blank control. After 72 h. […] Inhibition rate (%)=(mean value of negative control group−mean value of experimental group)/(mean value of negative control group−mean value of blank group)×100%. A dose-response curve was fitted by four-parameter analysis, with the logarithm of compound concentration serving as abscissa and inhibition rate serving as ordinate, such that ICso was calculated.

Each structure is given as a SMILES string.

Take `Cn1ccc(-c2cc(C(=O)Nc3ccc(OC(F)(F)Cl)cc3)cnc2N2CC[C@H](Cl)C2)cc1=O` [Compound 4]: in test [1], the IC50 worked out at 16 nM. In addition, the GI50 in test [2] is 21 nM.

Take `Cn1ccc(-c2cc(C(=O)Nc3ccc(OC(F)(F)Cl)cc3)cnc2N2CC3(COC3)C2)cc1=O` [Compound 5]: the IC50 in test [1] came to 16 nM. The GI50 in test [2] came to 28 nM.

Regarding `O=C(Nc1ccc(OC(F)(F)Cl)cc1)c1cnc(N2CCOCC2)c(-c2ccn(CCO)c(=O)c2)c1` [Compound 8], the IC50 in test [1] was 52 nM. Besides, in test [2], the GI50 turned out to be 23 nM.

As to `CCn1ccc(-c2cc(C(=O)Nc3ccc(OC(F)(F)Cl)cc3)cnc2N2CCOCC2)cc1=O` [Compound 9], the IC50 in test [1] is 9.3 nM.

With `Cn1ccc(-c2cc(C(=O)Nc3ccc(OC(F)(F)Cl)cc3)cnc2N2CC[C@@H](O)C2)cc1=O` [Compound 11], the IC50 in test [1] amounted to 12 nM. Moreover, the GI50 in test [2] came to 54 nM.

In the case of `Cn1ccc(-c2cc(C(=O)Nc3ccc(OC(F)(F)Cl)cc3)cnc2N2CC[C@H](F)C2)cc1=O` [Compound 17], in test [1], the IC50 turned out to be 13 nM. In addition, the GI50 in test [2] is 33 nM.

Turning to `Cn1ccc(-c2cc(C(=O)Nc3ccc(OC(F)(F)Cl)cc3)cnc2N2CC[C@@H](Cl)C2)cc1=O` [Compound 18], the IC50 in test [1] came out at 4.9 nM. The GI50 in test [2] was found to be 8.1 nM.

Turning to `Cn1ccc(-c2cc(C(=O)Nc3ccc(OC(F)(F)Cl)cc3)cnc2N2C3COCC2C3)cc1=O` [Compound 20], in test [1], the IC50 came out at 31 nM. The GI50 in test [2] stood at 38 nM.

Turning to `Cn1ccc(-c2cc(C(=O)Nc3ccc(OC(F)(F)Cl)cc3)cnc2N2C[C@H]3C[C@@H]2CO3)cc1=O` [Compound 21], in test [2], the GI50 was found to be 20 nM.

Consider `Cn1ccc(-c2cc(C(=O)Nc3ccc(OC(F)(F)Cl)cc3)cnc2N2C[C@@H]3C[C@H]2CO3)cc1=O` [Compound 22], for which, in test [2], the GI50 is 35 nM.

In the case of `Cn1ccc(-c2cc(C(=O)Nc3ccc(OC(F)(F)Cl)cc3)cnc2N2CC3CC(C2)O3)cc1=O` [Compound 23], the IC50 in test [1] was 10 nM. The GI50 in test [2] was found to be 18 nM.

Consider `Cn1ccc(-c2cc(C(=O)Nc3ccc(OC(F)(F)Cl)cc3)cnc2N2CCC3(CC2)COC3)cc1=O` [Compound 24], for which the IC50 in test [1] came out at 6.3 nM. For the same molecule, in test [2], the GI50 was 12 nM.

Take `Cn1ccc(-c2cc(C(=O)Nc3ccc(OC(F)(F)Cl)cc3)cnc2N2CC(C#N)C2)cc1=O` [Compound 25]: the IC50 in test [1] came out at 9 nM. The GI50 in test [2] amounted to 20 nM.

Take `Cn1ccc(-c2cc(C(=O)Nc3ccc(OC(F)(F)Cl)cc3)cnc2N2CC(C)(O)C2)cc1=O` [Compound 26]: the IC50 in test [1] was 26 nM. For the same molecule, in test [2], the GI50 came to 53 nM.

`Cn1ccc(-c2cc(C(=O)Nc3ccc(OC(F)(F)Cl)cc3)cnc2N2C[C@H](O)[C@@H](F)C2)cc1=O` [Compound 27]: the IC50 in test [1] is 18 nM. Besides, the GI50 in test [2] was found to be 67 nM.

With `Cn1ccc(-c2cc(C(=O)Nc3ccc(OC(F)(F)Cl)cc3)cnc2N2CC3CC3C2)cc1=O` (centres unmarked) [Compound 28], the IC50 in test [1] came to 6.5 nM. The GI50 in test [2] was 11 nM.

As to `Cn1ccc(-c2cc(C(=O)Nc3ccc(OC(F)(F)Cl)cc3)cnc2N2CCCO2)cc1=O` [Compound 29], the IC50 in test [1] was 6.8 nM. The GI50 in test [2] worked out at 12 nM.

`Cn1ccc(-c2cc(C(=O)Nc3ccc(OC(F)(F)Cl)cc3)cnc2N2CC[C@H](C#N)C2)cc1=O` [Compound 30]: the IC50 in test [1] is 10 nM. In addition, the GI50 in test [2] worked out at 18 nM.

Turning to `Cn1ccc(-c2cc(C(=O)Nc3ccc(OC(F)(F)Cl)cc3)cnc2N2CC[C@@H](C#N)C2)cc1=O` [Compound 31], in test [1], the IC50 is 12 nM. Also, the GI50 in test [2] was 21 nM.

Turning to `Cn1cc(Cl)c(-c2cc(C(=O)Nc3ccc(OC(F)(F)Cl)cc3)cnc2N2CCOCC2)cc1=O` [Compound 33], the IC50 in test [1] was found to be 4.9 nM. For the same molecule, the GI50 in test [2] was determined as 9.1 nM.

As for `Cn1ccc(-c2cc(C(=O)Nc3ccc(OC(F)(F)Cl)cc3)cnc2N2CC3CCC(C2)O3)cc1=O` [Compound 34], the IC50 in test [1] stood at 20 nM. Moreover, the GI50 in test [2] stood at 7.8 nM.

As to `Cn1ccc(-c2cc(C(=O)Nc3ccc(OC(F)(F)Cl)cc3)cnc2N2C3CCC2COC3)cc1=O` [Compound 35], in test [1], the IC50 was determined as 16 nM. Further, the GI50 in test [2] is 13 nM.

`O=C(Nc1ccc(OC(F)(F)Cl)cc1)c1cnc(N2C3CCC2COC3)c(-c2cnn3c2COCC3)c1` [Compound 37]: the IC50 in test [1] was 7.8 nM. The GI50 in test [2] worked out at 16 nM.

On to `O=C(Nc1ccc(OC(F)(F)Cl)cc1)c1cnc(N2C[C@H]3C[C@@H]2CO3)c(-c2cnn3c2COCC3)c1` [Compound 38], for which, in test [2], the GI50 was 5.7 nM.

Take `O=C(Nc1ccc(OC(F)(F)Cl)cc1)c1cnc(N2C[C@@H]3C[C@H]2CO3)c(-c2cnn3c2COCC3)c1` [Compound 40]: the GI50 in test [2] was determined as 7.4 nM.

As to `Cn1cnc(-c2cc(C(=O)Nc3ccc(OC(F)(F)Cl)cc3)cnc2N2CC(O)C2)cc1=O` [Compound 48], the IC50 in test [1] is 13 nM.

Turning to `Cn1cnc(-c2cc(C(=O)Nc3ccc(OC(F)(F)Cl)cc3)cnc2N2C3CCC2COC3)cc1=O` [Compound 49], the IC50 in test [1] turned out to be 10 nM.

Take `Cn1cnc(-c2cc(C(=O)Nc3ccc(OC(F)(F)Cl)cc3)cnc2N2CC3CCC(C2)O3)cc1=O` [Compound 50]: the IC50 in test [1] stood at 10 nM.

In the case of `Cn1cnc(-c2cc(C(=O)Nc3ccc(OC(F)(F)Cl)cc3)cnc2N2C[C@H]3C[C@@H]2CO3)cc1=O` [Compound 51], the IC50 in test [1] was found to be 13 nM.

As for `Cn1cnc(-c2cc(C(=O)Nc3ccc(OC(F)(F)Cl)cc3)cnc2N2CC3CC(C2)O3)cc1=O` [Compound 52], the IC50 in test [1] was 6.1 nM.

On to `COCCNc1ncc(C(=O)Nc2ccc(OC(F)(F)Cl)cc2)cc1-c1cc(=O)n(C)cn1` [Compound 55], for which, in test [1], the IC50 was 26 nM.

In the case of `C[C@H]1COCCN1c1ncc(C(=O)Nc2ccc(OC(F)(F)Cl)cc2)cc1-c1cc(=O)n(C)cn1` [Compound 57], in test [1], the IC50 came out at 59 nM.

`CNc1ncc(C(=O)Nc2ccc(OC(F)(F)Cl)cc2)cc1-c1cc(=O)n(C)cn1` [Compound 62]: in test [1], the concentration for half-maximal inhibition (IC50) is 18 nM.

On to `Cn1cnc(-c2cc(C(=O)Nc3ccc(OC(F)(F)Cl)cc3)cnc2-n2ccnc2)cc1=O` [Compound 66], for which, in test [1], the IC50 was 31 nM.

Turning to `Cn1cnc(-c2cc(C(=O)Nc3ccc(OC(F)(F)Cl)cc3)cnc2-c2ccn[nH]2)cc1=O` [Compound 69], the IC50 in test [1] was determined as 47 nM.

For `COCCOc1ncc(C(=O)Nc2ccc(OC(F)(F)Cl)cc2)cc1-c1cc(=O)n(C)cn1` [Compound 70], the IC50 in test [1] is 95 nM.

`COc1ncc(C(=O)Nc2ccc(OC(F)(F)Cl)cc2)cc1-c1cc(=O)n(C)cn1` [Compound 71]: the IC50 in test [1] is 43 nM.

On to `Cn1nccc1-c1ncc(C(=O)Nc2ccc(OC(F)(F)Cl)cc2)cc1-c1cc(=O)n(C)cn1` [Compound 73], for which the IC50 in test [1] was 14 nM.

As for `Cn1cnc(-c2cc(C(=O)Nc3ccc(OC(F)(F)Cl)cc3)cnc2-n2cccn2)cc1=O` [Compound 77], in test [1], the IC50 amounted to 13 nM.

For the molecule `CN(C)c1ncc(C(=O)Nc2ccc(OC(F)(F)Cl)cc2)cc1-c1cc(=O)n(CC2CCOCC2)cn1` [Compound 78], the IC50 in test [1] came to 46 nM.

In the case of `Cn1cnc(-c2cc(C(=O)Nc3ccc(OC(F)(F)Cl)cc3)cnc2N2C[C@@H](F)[C@H](F)C2)cc1=O` [Compound 79], the IC50 in test [1] amounted to 17 nM.

`Cn1cnc(-c2cc(C(=O)Nc3ccc(OC(F)(F)Cl)cc3)cnc2N2CCCO2)cc1=O` [Compound 80]: the IC50 in test [1] turned out to be 14 nM.

For the molecule `CON(C)c1ncc(C(=O)Nc2ccc(OC(F)(F)Cl)cc2)cc1-c1cc(=O)n(C)cn1` [Compound 81], the IC50 in test [1] came out at 10 nM.

In the case of `Cn1cc(-c2cc(C(=O)Nc3ccc(OC(F)(F)Cl)cc3)cnc2N2CCOCC2)ncc1=O` [Compound 82], the IC50 in test [1] was determined as 57 nM.

Turning to `Cn1cc(-c2cc(C(=O)Nc3ccc(OC(F)(F)Cl)cc3)cnc2N2CCOCC2)ccc1=O` [Compound 84], in test [1], the IC50 was determined as 45 nM.

Consider `Cn1ncc(-c2cc(C(=O)Nc3ccc(OC(F)(F)Cl)cc3)cnc2N2C[C@H]3C[C@@H]2CO3)cc1=O` [Compound 88], for which the IC50 in test [1] was 10 nM.

For the molecule `O=C(Nc1ccc(OC(F)(F)Cl)cc1)c1cnc(N2C3COCC2C3)c(-c2cnn3c2COCC3)c1` [Compound 92], the IC50 in test [1] turned out to be 15 nM.

For the molecule `C[C@@H]1COCCN1c1ncc(C(=O)Nc2ccc(OC(F)(F)Cl)cc2)cc1-c1cnn2c1COCC2` [Compound 93], the 50% inhibitory concentration (IC50) in test [1] amounted to 12 nM.

As for `CN1Cc2nc(-c3cc(C(=O)Nc4ccc(OC(F)(F)Cl)cc4)cnc3N3CC[C@@H](O)C3)[nH]c2C1=O` [Compound 95], the IC50 in test [1] amounted to 39 nM.

Regarding `CN1CCc2oc(-c3cc(C(=O)Nc4ccc(OC(F)(F)Cl)cc4)cnc3N3CC[C@@H](O)C3)cc2C1=O` [Compound 101], the IC50 in test [1] came to 10 nM.

As to `O=C(Nc1ccc(OC(F)(F)Cl)cc1)c1cnc(N2CC[C@@H](O)C2)c(-c2cc3nccn3[nH]2)c1` [Compound 102], the GI50 in test [2] was 76 nM.
